As a reminder, the cell viability is a read-out of living cells in per cent, often relative to untreated cells.

± gives the standard deviation of the averaged measurements.

The assay relates to HL-60. Nature of the assay: cell viability (% survival relative to DMSO control); higher = less cytotoxic. Conditions: 72 h. In a few lines:
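HL-60 cells in RPMI 1640 with 10% FBS were rescreened against the full library on 384-well plates at five tenfold concentrations, 1–10,000 nM, in duplicate. Each screen was run with DMSO or 100 nM of one of three metabolic inhibitors, for 72 h at 37 °C, 5% CO2. Viability was read by CellTiter-Glo and normalised to DMSO and 10 μM proteasome-inhibitor wells. Where given, area under the curve came from four-parameter log-logistic fits (drc, PharmacoGx).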

[1] abbreviates: 0.001 µM, co-treatment: AZD3965 100 nM.
Where [2] appears, read: 0.001 µM, co-treatment: DMSO vehicle.
The mark [3] stands for this setting: 0.001 µM, co-treatment: GSK2194069 100 nM.
The mark [4] stands for this setting: 0.001 µM, co-treatment: pictilisib 100 nM.
Setting [5] is: 0.01 µM, co-treatment: AZD3965 100 nM.
[6] abbreviates: 0.01 µM, co-treatment: DMSO vehicle.
Setting [7] is: 0.01 µM, co-treatment: GSK2194069 100 nM.
Where [8] appears, read: 0.01 µM, co-treatment: pictilisib 100 nM.
[9] abbreviates: 0.1 µM, co-treatment: AZD3965 100 nM.
The mark [10] stands for this setting: 0.1 µM, co-treatment: DMSO vehicle.
[11] abbreviates: 0.1 µM, co-treatment: GSK2194069 100 nM.
Setting [12] is: 0.1 µM, co-treatment: pictilisib 100 nM.
[13] abbreviates: 1 µM, co-treatment: AZD3965 100 nM.
The mark [14] stands for this setting: 1 µM, co-treatment: DMSO vehicle.
Setting [15] is: 1 µM, co-treatment: GSK2194069 100 nM.
The mark [16] stands for this setting: 1 µM, co-treatment: pictilisib 100 nM.
Setting [17] is: 10 µM, co-treatment: AZD3965 100 nM.
Setting [18] is: 10 µM, co-treatment: DMSO vehicle.
Where [19] appears, read: 10 µM, co-treatment: GSK2194069 100 nM.
Where [20] appears, read: 10 µM, co-treatment: pictilisib 100 nM.

With `Nc1ncnc2c1ncn2[C@@H]1O[C@H](CSCC[C@H](N)C(=O)O)[C@@H](O)[C@H]1O` [S-Adenosyl Homocysteine], the cell viability by setting is: under setting [1], 103 ± 18%; under setting [2], 97.1 ± 11%; under setting [3], 91.8 ± 36%; under setting [4], 108 ± 33%; under setting [5], 85.2 ± 20%; under setting [6], 93.3 ± 4.4%. Further, the cell viability is, setting by setting: under setting [7], 86.7 ± 12%; under setting [8], 78.6 ± 4.6%; under setting [9], 101 ± 3.4%; under setting [10], 98.6 ± 3.3%; under setting [11], 103 ± 8.4%; under setting [12], 102 ± 5.2%. For the same compound, the cell viability under setting [13] amounted to 97.2 ± 3.1%; the cell viability under setting [14] is 98.5 ± 2.5%; the cell viability under setting [15] worked out at 99.08 ± 0.63%; the cell viability under setting [16] came out at 97.8 ± 7%; the cell viability under setting [17] amounted to 101.99 ± 0.033%; the cell viability under setting [18] was 99.4 ± 3.9%. Besides, the cell viability by setting is: under setting [19], 94.5 ± 13%; under setting [20], 98 ± 4.3%.
Consider `O=C(O)CC[C@H](NC(=O)c1ccc([N+](=O)[O-])cc1)C(=O)O` [(S)-2-(4-Nitrobenzamido)pentanedioic acid], for which the cell viability is, setting by setting: under setting [1], 103.2 ± 0.55%; under setting [2], 101.4 ± 0.26%; under setting [3], 101 ± 4%; under setting [4], 90.7 ± 1.9%; under setting [5], 106 ± 5.3%; under setting [6], 100 ± 2.4%. Besides, the cell viability under setting [7] is 110 ± 1.1%; the cell viability under setting [8] was found to be 102 ± 1.9%; the cell viability under setting [9] amounted to 102 ± 1.6%; the cell viability under setting [10] was 99 ± 1.6%; the cell viability under setting [11] amounted to 103 ± 4.5%; the cell viability under setting [12] amounted to 88.78 ± 0.71%. Moreover, the cell viability runs as follows: under setting [13], 102 ± 2.1%; under setting [14], 102 ± 2.3%; under setting [15], 102 ± 3.7%; under setting [16], 102 ± 10%; under setting [17], 103 ± 7.4%; under setting [18], 101 ± 1.4%. Besides, the cell viability stood at 99.2 ± 2.3% under setting [19] and 92.3 ± 24% under setting [20].
As to `NC(=O)c1ncn([C@@H]2O[C@H](CO)[C@@H](O)[C@H]2O)n1` [Ribavirin], the cell viability reads like this: under setting [1], 100 ± 3.5%; under setting [2], 100.3 ± 0.67%; under setting [3], 92.1 ± 6.2%; under setting [4], 105 ± 7.1%; under setting [5], 100 ± 4.4%; under setting [6], 102 ± 1.6%. The cell viability under setting [7] is 76.6 ± 27%; the cell viability under setting [8] was determined as 106 ± 5%; the cell viability under setting [9] was 99.2 ± 3.9%; the cell viability under setting [10] amounted to 102 ± 3%; the cell viability under setting [11] is 94.1 ± 5.5%; the cell viability under setting [12] came to 101 ± 3%. The cell viability by setting is: under setting [13], 99.8 ± 4.1%; under setting [14], 97.1 ± 3.6%; under setting [15], 90.1 ± 14%; under setting [16], 107 ± 3.6%; under setting [17], 106 ± 2.2%; under setting [18], 104 ± 4.4%. Further, the cell viability was 90.4 ± 12% under setting [19] and 104 ± 3.7% under setting [20].
As for `CCN(CC)CCN(Cc1ccc(-c2ccc(C(F)(F)F)cc2)cc1)C(=O)Cn1c(SCc2ccc(F)cc2)nc(=O)c2c1CCC2` [Darapladib], the cell viability under setting [1] amounted to 96.2 ± 14%; the cell viability under setting [2] came out at 103.1 ± 0.25%; the cell viability under setting [3] turned out to be 98.7 ± 14%; the cell viability under setting [4] was found to be 85.9 ± 27%; the cell viability under setting [5] came out at 100 ± 3.4%; the cell viability under setting [6] came out at 99.55 ± 0.55%. Besides, the cell viability by setting is: under setting [7], 97.8 ± 1.3%; under setting [8], 97.2 ± 7%; under setting [9], 104 ± 1.6%; under setting [10], 101 ± 6.2%; under setting [11], 99.8 ± 1.8%; under setting [12], 102 ± 4.5%. The cell viability was 93.7 ± 2.3% under setting [13]; 96.27 ± 0.22% under setting [14]; 84.4 ± 10% under setting [15]; 97.3 ± 7.4% under setting [16]; -1.351 ± 0.0054% under setting [17]; -2.41 ± 0.42% under setting [18]. The cell viability under setting [19] is -2.4 ± 0.029% and the cell viability under setting [20] was -2.26 ± 0.088%.
In the case of `Oc1cc(Cl)ccc1Oc1ccc(Cl)cc1Cl` [Triclosan], the cell viability turned out to be 100 ± 3.6% under setting [1]; 101 ± 2.6% under setting [2]; 102 ± 4.7% under setting [3]; 93.3 ± 13% under setting [4]; 104 ± 5.1% under setting [5]; 98.7 ± 7.6% under setting [6]. Moreover, the cell viability came out at 107 ± 9.5% under setting [7]; 120 ± 9.4% under setting [8]; 96.5 ± 1.2% under setting [9]; 99.7 ± 1.2% under setting [10]; 95.3 ± 5.2% under setting [11]; 95.7 ± 12% under setting [12]. Further, the cell viability runs as follows: under setting [13], 94.9 ± 7.2%; under setting [14], 99.6 ± 1.5%; under setting [15], 105 ± 4.4%; under setting [16], 111 ± 3.4%; under setting [17], 103 ± 3.2%; under setting [18], 111 ± 4%. Also, the cell viability reads like this: under setting [19], 99.7 ± 2.5%; under setting [20], 107.6 ± 0.22%.
Consider `CC12CCC(O)CC1CCC1C2CCC2(C)C(C3=CC(=O)OC3)CCC12O` (stereo not given) [Digitoxigenin], for which the cell viability was found to be 104 ± 7.6% under setting [1]; 99.5 ± 2.3% under setting [2]; 98.16 ± 0.98% under setting [3]; 104 ± 4.3% under setting [4]; 100 ± 5.7% under setting [5]; 105 ± 4.2% under setting [6]. For the same compound, the cell viability under setting [7] was found to be 99.7 ± 2%; the cell viability under setting [8] was 105 ± 4.2%; the cell viability under setting [9] is 102 ± 1.2%; the cell viability under setting [10] amounted to 100 ± 3%; the cell viability under setting [11] came out at 95 ± 3%; the cell viability under setting [12] is 101.7 ± 0.93%. Also, the cell viability was -0.584 ± 0.77% under setting [13]; -1.01 ± 1.5% under setting [14]; -0.749 ± 1.5% under setting [15]; -1.18 ± 0.99% under setting [16]; -0.476 ± 0.086% under setting [17]; -0.944 ± 0.072% under setting [18]. For the same compound, the cell viability is, setting by setting: under setting [19], -1.7 ± 0.21%; under setting [20], -1.09 ± 0.14%.

Values taken from the supplement of paper PMC8671470.
